# Assay results taken from patent US20090075320A1, “Method for screening an enhancer or a masker of salty taste” (priority 2006, published 2009).
# Target: T1, hENaC channel (Homo sapiens, UniProt P37088+P51168+P51170, A314G/A350T/D375G/F339S/S458R/Y369S)
# T1 sequence (P37088 1-669): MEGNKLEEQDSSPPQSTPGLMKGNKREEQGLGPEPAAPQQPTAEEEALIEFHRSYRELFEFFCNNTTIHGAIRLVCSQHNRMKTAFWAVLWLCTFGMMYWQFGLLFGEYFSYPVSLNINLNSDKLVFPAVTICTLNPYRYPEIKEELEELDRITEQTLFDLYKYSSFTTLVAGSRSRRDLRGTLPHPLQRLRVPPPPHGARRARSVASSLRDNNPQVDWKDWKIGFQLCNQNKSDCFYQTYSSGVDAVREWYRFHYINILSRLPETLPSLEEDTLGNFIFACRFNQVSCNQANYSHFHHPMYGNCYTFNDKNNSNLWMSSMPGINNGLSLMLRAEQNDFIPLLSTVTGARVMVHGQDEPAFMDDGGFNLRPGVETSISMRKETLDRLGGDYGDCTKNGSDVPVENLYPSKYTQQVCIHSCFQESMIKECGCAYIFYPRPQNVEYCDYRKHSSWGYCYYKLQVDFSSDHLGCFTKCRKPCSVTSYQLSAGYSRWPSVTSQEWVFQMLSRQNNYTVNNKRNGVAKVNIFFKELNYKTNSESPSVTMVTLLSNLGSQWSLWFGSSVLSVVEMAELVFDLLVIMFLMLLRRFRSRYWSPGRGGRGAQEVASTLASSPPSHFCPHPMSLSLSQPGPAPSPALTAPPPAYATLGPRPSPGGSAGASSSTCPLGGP
# T1 sequence (P51168 1-640 A314G): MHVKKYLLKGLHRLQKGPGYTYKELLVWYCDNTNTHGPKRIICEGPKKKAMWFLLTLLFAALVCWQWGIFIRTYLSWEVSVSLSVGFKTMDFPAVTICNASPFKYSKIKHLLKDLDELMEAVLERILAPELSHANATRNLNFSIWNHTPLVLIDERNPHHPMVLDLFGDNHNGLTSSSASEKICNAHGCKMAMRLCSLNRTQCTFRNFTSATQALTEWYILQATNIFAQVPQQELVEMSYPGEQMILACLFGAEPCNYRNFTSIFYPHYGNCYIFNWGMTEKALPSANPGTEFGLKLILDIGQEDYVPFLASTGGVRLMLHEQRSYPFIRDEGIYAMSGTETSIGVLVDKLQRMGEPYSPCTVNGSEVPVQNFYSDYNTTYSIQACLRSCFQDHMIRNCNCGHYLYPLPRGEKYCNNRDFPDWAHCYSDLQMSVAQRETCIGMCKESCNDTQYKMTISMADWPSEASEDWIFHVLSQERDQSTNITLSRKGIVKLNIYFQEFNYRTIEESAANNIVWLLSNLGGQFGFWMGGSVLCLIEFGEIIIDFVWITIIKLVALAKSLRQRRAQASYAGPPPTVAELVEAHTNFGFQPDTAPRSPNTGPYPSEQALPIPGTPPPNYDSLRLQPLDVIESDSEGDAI
# T1 sequence (P51170 1-649 F339S/A350T/Y369S/D375G/S458R): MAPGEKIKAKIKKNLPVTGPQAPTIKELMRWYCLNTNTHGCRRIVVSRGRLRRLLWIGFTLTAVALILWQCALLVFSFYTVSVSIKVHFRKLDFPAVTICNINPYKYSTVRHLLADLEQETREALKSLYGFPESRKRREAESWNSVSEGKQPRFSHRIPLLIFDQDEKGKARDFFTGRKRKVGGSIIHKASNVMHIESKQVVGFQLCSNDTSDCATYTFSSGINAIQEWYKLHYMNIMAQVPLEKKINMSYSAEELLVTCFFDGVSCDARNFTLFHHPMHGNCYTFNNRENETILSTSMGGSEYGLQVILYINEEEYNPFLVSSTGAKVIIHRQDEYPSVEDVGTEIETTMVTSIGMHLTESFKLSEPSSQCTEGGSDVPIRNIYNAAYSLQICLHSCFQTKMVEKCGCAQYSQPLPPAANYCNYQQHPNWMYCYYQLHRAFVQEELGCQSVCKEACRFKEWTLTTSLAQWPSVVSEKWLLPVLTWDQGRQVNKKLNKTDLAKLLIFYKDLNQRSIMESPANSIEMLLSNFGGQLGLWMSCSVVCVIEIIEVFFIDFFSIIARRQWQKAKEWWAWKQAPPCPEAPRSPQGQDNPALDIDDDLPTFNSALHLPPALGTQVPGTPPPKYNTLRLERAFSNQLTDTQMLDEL
# Assay: Primary screen MP assay (membrane potential dye): dose-response curves for inhibition by hENaC blockers
# Format: cell-based
# Conditions: HEK293 Flp-In T-Rex hENaC cells (alpha, beta, gamma; pUR8191), loaded with MP-Blue dye for 1 hr, Flexstation; FIG. 4
# Experimental: FIG. 4. Dose-response curve for different concentrations of the hENaC blockers amiloride, benzamil and phenamil (in M). Cells were loaded with MP-Blue dye for 1 hr and assayed in the Flexstation.
# HEK293 Flp-In T-Rex hENaC cells were grown to about 80% confluency and dissociated from the culture dish with trypsin/EDTA for 1-5 minutes at 37° C. Dissociated cells were taken up in a concentration between 1×10^5 and 1×10^6 cells/ml in DMEM/Tet-free FCS/blasticidin/hygromycin medium. 100 μL of cells were added per well in a poly-L-lysine coated black well clear bottom 96-wells plate. The cells were grown overnight and then induced by addition of 100 μl DMEM/Tet-free FCS/blasticidin/hygromycin medium with doxycyclin (final conc. 0.25 μg/ml). Alternatively, in some wells amiloride was added to inhibit hENaC channel activity during induction.
# After 20 to 48 hrs the medium was removed, cells were washed with buffer and subsequently loaded with MP-Blue (cat# R8042) or MP-Red (cat# R8123) dye (from Molecular Devices) according to the manufacturer's instructions for 1 hr at 37° C. The plates were subsequently loaded into the Flexstation II for fluorescence measurements. Compounds were added to the wells in different concentrations after a baseline measurement of 30 sec. […] The fluorescence values were normalized on the average value of the first five time points. […]
row,Structure (SMILES),inhibition of the hENaC channel (rank order from dose-response curves)
1,N=C(N)NC(=O)c1nc(Cl)c(N)nc1N [amiloride],followed by benzamil and amiloride
2,NC(=Nc1ccccc1)NC(=O)c1nc(Cl)c(N)nc1N [phenamil],the best compound for inhibition
